Test results: US10336762B2 (priority 2017, dated 2019)

Key:
TNFα = assay: cells; assay type: cell-based, human; settings: Homo sapiens, Monocyte, LPS-stimulated human monocytes, TNFα content; read-out: EC50 TNF
IRAK4 enzyme = IRAK4 enzyme (Homo sapiens (Human), UniProt Q9NWZ3); assay: biochemical; assay type: biochemical; settings: IRAK4 enzyme, TR-FRET, 500 μM ATP
Sequence of IRAK4 enzyme (Q9NWZ3 whole entry): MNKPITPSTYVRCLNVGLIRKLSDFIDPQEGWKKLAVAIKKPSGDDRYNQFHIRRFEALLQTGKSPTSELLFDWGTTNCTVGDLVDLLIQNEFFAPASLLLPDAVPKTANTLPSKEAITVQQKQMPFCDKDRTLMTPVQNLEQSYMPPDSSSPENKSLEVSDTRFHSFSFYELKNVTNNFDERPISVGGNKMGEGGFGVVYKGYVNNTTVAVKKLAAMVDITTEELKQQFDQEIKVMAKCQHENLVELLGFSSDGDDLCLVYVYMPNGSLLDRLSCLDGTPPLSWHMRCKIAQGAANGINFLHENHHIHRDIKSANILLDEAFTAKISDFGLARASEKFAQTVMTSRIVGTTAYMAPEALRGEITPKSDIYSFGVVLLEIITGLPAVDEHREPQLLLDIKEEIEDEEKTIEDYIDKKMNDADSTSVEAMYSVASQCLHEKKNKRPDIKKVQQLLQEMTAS

For CC(C)(O)[C@H](F)CNC(=O)c1cnc(-c2ccc3cc(C#N)cnn23)cc1N[C@H]1CC[C@@H](OC(=O)NC2CC2)CC1 [Example 166, (1S,4s)-4-((2-(3-cyano-pyrrolo[1,2-b]pyridazin-7-yl)-5-(((R)-2-fluoro-3-hydroxy-3-methylbutyl)carbamoyl)pyridin-4-yl)amino)cyclohexyl cyclopropylcarbamate], the EC50 (TNFα) was greater than 10000 nM and the IC50 (IRAK4 enzyme) was 741 nM.

CN(C)C(=O)O[C@H]1CC[C@@H](Nc2cc(-c3ccc4cc(C#N)cnn34)ncc2C(=O)NC[C@@H](F)C(C)(C)O)CC1 [Example 167, (1S,4s)-4-((2-(3-cyano-pyrrolo[1,2-b]pyridazin-7-yl)-5-(((R)-2-fluoro-3-hydroxy-3-methylbutyl)carbamoyl)pyridin-4-yl)amino)cyclohexyl dimethylcarbamate] was tested, and the EC50 (TNFα) was greater than 10000 nM and the IC50 (IRAK4 enzyme) was 1000 nM.

For CNC(=O)O[C@H]1CC[C@@H](Nc2cc(-c3ccc4cc(C#N)cnn34)ncc2C(=O)NC[C@@H](F)C(C)(C)O)CC1 [Example 168, (1S,4s)-4-((2-(3-cyano-pyrrolo[1,2-b]pyridazin-7-yl)-5-(((R)-2-fluoro-3-hydroxy-3-methylbutyl)carbamoyl)pyridin-4-yl)amino)cyclohexyl methylcarbamate], the EC50 (TNFα) was greater than 10000 nM and the IC50 (IRAK4 enzyme) was 1000 nM.

CC(C)(O)[C@H](F)CNC(=O)c1cnc(-c2ccc3cc(C#N)cnn23)cc1N[C@H]1C[C@H](O)C1 [Example 169, 6-(3-cyanopyrrolo[1,2-b]pyridazin-7-yl)-N-((R)-2-fluoro-3-hydroxy-3-methylbutyl)-4-(((1r,3R)-3-hydroxycyclobutyl)amino) nicotinamide] showed an EC50 (TNFα) greater than 10000 nM and an IC50 (IRAK4 enzyme) of 183 nM.

For CC(C)(O)[C@H](F)CNC(=O)c1cnc(-c2ccc3cc(C#N)cnn23)cc1NCc1cccnc1 [Example 170, (R)-6-(3-cyanopyrrolo[1,2-b]pyridazin-7-yl)-N-(2-fluoro-3-hydroxy-3-methylbutyl)-4-((pyridin-3-ylmethyl)amino) nicotinamide], the EC50 (TNFα) was 217 nM and the IC50 (IRAK4 enzyme) was 3 nM.

In the case of CC(C)(O)[C@H](F)CNC(=O)c1cnc(-c2ccc3cc(C#N)cnn23)cc1NCc1ccccn1 [Example 171, (R)-6-(3-cyanopyrrolo[1,2-b]pyridazin-7-yl)-N-(2-fluoro-3-hydroxy-3-methylbutyl)-4-((pyridin-2-ylmethyl)amino) nicotinamide], the EC50 (TNFα) is reported as 382 nM and the IC50 (IRAK4 enzyme) is reported as 6 nM.

Work on CC(C)(O)[C@H](F)CNC(=O)c1cnc(-c2ccc3cc(C#N)cnn23)cc1Nc1ccc(-c2cn[nH]c2)nc1 [Example 172, (R)-4-((6-(1H-pyrazol-4-yl)pyridin-3-yl)amino)-6-(3-cyanopyrrolo[1,2-b]pyridazin-7-yl)-N-(2-fluoro-3-hydroxy-3-methylbutyl) nicotinamide] yielded an EC50 (TNFα) of 76 nM and an IC50 (IRAK4 enzyme) of less than 1 nM.

Work on CC(C)(O)[C@H](F)CNC(=O)c1cnc(-c2ccc3cc(C#N)cnn23)cc1NC1CCC(C(=O)N2CCOCC2)CC1 (stereo partly drawn) [Example 173, 6-(3-cyanopyrrolo[1,2-b]pyridazin-7-yl)-N-((R)-2-fluoro-3-hydroxy-3-methylbutyl)-4-(((1r,4R)-4-(morpholine-4-carbonyl)cyclohexyl)amino) nicotinamide] yielded an EC50 (TNFα) of 148 nM and an IC50 (IRAK4 enzyme) of 2 nM.

Molecule CC(C)(O)[C@H](F)CNC(=O)c1cnc(-c2ccc3cc(C#N)cnn23)cc1NC1CCC(C(=O)N2CC(F)(F)C2)CC1 (stereo partly drawn) [Example 174, 6-(3-cyanopyrrolo[1,2-b]pyridazin-7-yl)-4-(((1r,4R)-4-(3,3-difluoroazetidine-1-carbonyl)cyclohexyl)amino)-N-((R)-2-fluoro-3-hydroxy-3-methylbutyl)nicotinamide] has an EC50 (TNFα) of 92 nM and an IC50 (IRAK4 enzyme) of 1 nM.

For CC(C)(O)[C@H](F)CNC(=O)c1cnc(-c2ccc3cc(C#N)cnn23)cc1Nc1ccc(-c2nc[nH]n2)cc1 [Example 175, (R)-4-((4-(1H-1,2,4-triazol-3-yl)phenyl)amino)-6-(3-cyanopyrrolo[1,2-b]pyridazin-7-yl)-N-(2-fluoro-3-hydroxy-3-methylbutyl)nicotinamide], the EC50 (TNFα) was 20 nM and the IC50 (IRAK4 enzyme) was less than 1 nM.

CC(C)(O)[C@H](F)CNC(=O)c1cnc(-c2ccc3cc(C#N)cnn23)cc1Nc1ccc(-n2ncnn2)cc1 [Example 176, (R)-4-((4-(2H-tetrazol-2-yl)phenyl)amino)-6-(3-cyanopyrrolo[1,2-b]pyridazin-7-yl)-N-(2-fluoro-3-hydroxy-3-methylbutyl)nicotinamide] showed an EC50 (TNFα) greater than 10000 nM and an IC50 (IRAK4 enzyme) of 1 nM.

CC(C)(O)[C@H](F)CNC(=O)c1cnc(-c2ccc3cc(C#N)cnn23)cc1Nc1ccc(-c2cc[nH]n2)cc1 [Example 177, (R)-4-((4-(1H-pyrazol-3-yl)phenyl)amino)-6-(3-cyanopyrrolo[1,2-b]pyridazin-7-yl)-N-(2-fluoro-3-hydroxy-3-methylbutyl)nicotinamide] gave an EC50 (TNFα) of 29 nM and an IC50 (IRAK4 enzyme) of less than 1 nM.

Molecule CC(C)(O)[C@H](F)CNC(=O)c1cnc(-c2ccc3cc(C#N)cnn23)cc1Nc1ccc(-c2cn[nH]c2)cc1 [Example 178, (R)-4-((4-(1H-pyrazol-4-yl)phenyl)amino)-6-(3-cyanopyrrolo[1,2-b]pyridazin-7-yl)-N-(2-fluoro-3-hydroxy-3-methylbutyl)nicotinamide] has an EC50 (TNFα) of 10 nM and an IC50 (IRAK4 enzyme) of less than 1 nM.

With Cn1cnc(-c2ccc(Nc3cc(-c4ccc5cc(C#N)cnn45)ncc3C(=O)NC[C@@H](F)C(C)(C)O)cc2)n1 [Example 179, (R)-6-(3-cyanopyrrolo[1,2-b]pyridazin-7-yl)-N-(2-fluoro-3-hydroxy-3-methylbutyl)-4-((4-(1-methyl-1H-1,2,4-triazol-3-yl)phenyl)amino) nicotinamide] the EC50 (TNFα) was 59 nM and the IC50 (IRAK4 enzyme) was 1 nM.

CC(C)(O)[C@H](F)CNC(=O)c1cnc(-c2ccc3cc(C#N)cnn23)cc1Nc1ccc(-n2ccnn2)cc1 [Example 180, (R)-4-((4-(1H-1,2,3-triazol-1-yl)phenyl)amino)-6-(3-cyanopyrrolo[1,2-b]pyridazin-7-yl)-N-(2-fluoro-3-hydroxy-3-methylbutyl)nicotinamide] was tested, and the EC50 (TNFα) was 34 nM and the IC50 (IRAK4 enzyme) was less than 1 nM.

With CC(C)(O)[C@H](F)CNC(=O)c1cnc(-c2ccc3cc(C#N)cnn23)cc1NCc1cn[nH]c1 [Example 181, (R)-4-(((1H-pyrazol-4-yl)methyl)amino)-6-(3-cyanopyrrolo[1,2-b]pyridazin-7-yl)-N-(2-fluoro-3-hydroxy-3-methylbutyl)nicotinamide] the EC50 (TNFα) was greater than 10000 nM and the IC50 (IRAK4 enzyme) was 1000 nM.

CNC(=O)C1CCC(Nc2cc(-c3ccc4cc(C#N)cnn34)ncc2C(=O)NC[C@@H](F)C(C)(C)O)CC1 (stereo partly drawn) [Example 182, 6-(3-cyanopyrrolo[1,2-b]pyridazin-7-yl)-N-((R)-2-fluoro-3-hydroxy-3-methylbutyl)-4-(((1r,4R)-4-(methylcarbamoyl)cyclohexyl)amino) nicotinamide] showed an EC50 (TNFα) of 70 nM and an IC50 (IRAK4 enzyme) of 1 nM.

In the case of CC(C)(O)[C@H](F)CNC(=O)c1cnc(-c2ccc3cc(C#N)cnn23)cc1Nc1ccnnc1 [Example 183, (R)-6-(3-cyanopyrrolo[1,2-b]pyridazin-7-yl)-N-(2-fluoro-3-hydroxy-3-methylbutyl)-4-(pyridazin-4-ylamino)nicotinamide], the EC50 (TNFα) is reported as 657 nM and the IC50 (IRAK4 enzyme) is reported as 6 nM.

Molecule Cc1ccc(Nc2cc(-c3ccc4cc(C#N)cnn34)ncc2C(=O)NC[C@@H](F)C(C)(C)O)cn1 [Example 184, (R)-6-(3-cyanopyrrolo[1,2-b]pyridazin-7-yl)-N-(2-fluoro-3-hydroxy-3-methylbutyl)-4-((6-methylpyridin-3-yl)amino)nicotinamide] has an EC50 (TNFα) of 48 nM and an IC50 (IRAK4 enzyme) of less than 1 nM.

With CC(C)(O)[C@H](F)CNC(=O)c1cnc(-c2ccc3cc(C#N)cnn23)cc1Nc1cnccn1 [Example 185, (R)-6-(3-cyanopyrrolo[1,2-b]pyridazin-7-yl)-N-(2-fluoro-3-hydroxy-3-methylbutyl)-4-(pyrazin-2-ylamino)nicotinamide] the EC50 (TNFα) was 46 nM and the IC50 (IRAK4 enzyme) was less than 1 nM.

With CC(C)(O)[C@H](F)CNC(=O)c1cnc(-c2ccc3cc(C#N)cnn23)cc1Nc1ccc(C(F)(F)F)nc1 [Example 186, (R)-6-(3-cyanopyrrolo[1,2-b]pyridazin-7-yl)-N-(2-fluoro-3-hydroxy-3-methylbutyl)-4-((6-(trifluoromethyl)pyridin-3-yl)amino)nicotinamide] the EC50 (TNFα) was 145 nM and the IC50 (IRAK4 enzyme) was 1 nM.

With Cc1cc(Nc2cc(-c3ccc4cc(C#N)cnn34)ncc2C(=O)NC[C@@H](F)C(C)(C)O)cnc1F [Example 187, (R)-6-(3-cyanopyrrolo[1,2-b]pyridazin-7-yl)-N-(2-fluoro-3-hydroxy-3-methylbutyl)-4-((6-fluoro-5-methylpyridin-3-yl)amino) nicotinamide] the EC50 (TNFα) was 152 nM and the IC50 (IRAK4 enzyme) was 1 nM.

CC(C)Nc1cc(-c2ccc3cc(C#N)cnn23)ncc1C(=O)N[C@@H]1CC[C@@H](O)C1 [Example 188, 6-(3-cyanopyrrolo[1,2-b]pyridazin-7-yl)-N-((1R,3R)-3-hydroxycyclopentyl)-4-(isopropylamino) nicotinamide] was tested, and the EC50 (TNFα) was 275 nM and the IC50 (IRAK4 enzyme) was 8 nM.

CC(C)Nc1cc(-c2ccc3cc(C#N)cnn23)ncc1C(=O)N[C@H]1CC[C@H](O)C1 [Example 189, 6-(3-cyanopyrrolo[1,2-b]pyridazin-7-yl)-N-((1S,3S)-3-hydroxycyclopentyl)-4-(isopropylamino) nicotinamide] was tested, and the EC50 (TNFα) was 136 nM and the IC50 (IRAK4 enzyme) was 6 nM.

In the case of CC(C)Nc1cc(-c2ccc3cc(C#N)cnn23)ncc1C(=O)N[C@H]1CCC[C@@H](O)C1 [Example 190, 6-(3-cyanopyrrolo[1,2-b]pyridazin-7-yl)-N-((1S,3R)-3-hydroxycyclohexyl)-4-(isopropylamino) nicotinamide], the EC50 (TNFα) is reported as 209 nM and the IC50 (IRAK4 enzyme) is reported as 8 nM.

CC(C)Nc1cc(-c2ccc3cc(C#N)cnn23)ncc1C(=O)N[C@H]1CCC[C@H](O)C1 [Example 191, 6-(3-cyanopyrrolo[1,2-b]pyridazin-7-yl)-N-((1S,3S)-3-hydroxycyclohexyl)-4-(isopropylamino) nicotinamide] showed an EC50 (TNFα) of 128 nM and an IC50 (IRAK4 enzyme) of 4 nM.

CC(C)Nc1cc(-c2ccc3cc(C#N)cnn23)ncc1C(=O)N[C@@H]1CCC[C@@H](O)C1 [Example 192, 6-(3-cyanopyrrolo[1,2-b]pyridazin-7-yl)-N-((1R,3R)-3-hydroxycyclohexyl)-4-(isopropylamino) nicotinamide] was tested, and the EC50 (TNFα) was 157 nM and the IC50 (IRAK4 enzyme) was 5 nM.
